This is an account of results in publication PMC7363885, “Fluorescent artificial receptor-based membrane assay (FARMA) for spatiotemporally resolved monitoring of biomembrane permeability” (Communications Biology, 2020).

The conditions of data set [1]: 298 K; cited from earlier work.
Data set [2] in a line: FARMA: permeation of analytes into FAR-loaded liposomes (fluorescence, cuvette or stopped-flow). Conditions: for membrane permeability (in words): FARMA with FAR-loaded liposomes or GUVs.
The next data set concerns Caco-2. Conditions: cited from earlier work.
For data set [3] the following is noted: Aliquot analysis/flat lipid bilayer (macroscopic bilayer of brain phospholipids); cited from earlier work.
In the next data set the test system is FAR-1. As to the kind of experiment: Fluorescence titration, FAR•analyte complex formation in homogeneous solution. The class given is binding. The settings on record: FAR-1; 10 mM HEPES buffer (pH 7); 1:1 binding model; error estimate ≤ 20%.
Data set [4] can be described thus: FARMA in DOPC:DOPS compared to POPC:POPS liposomes. The class given is in vitro ADME. The settings on record: peer review file. The text has this: good choice since they give different degrees of packing of lipids. If the authors further utilize the liposomes for testing membrane permeability of some of the compounds appeared in the manuscript using FARMAs composed of such different types of lipids, the results would be informative for understanding relationships between permeability of compounds and lipid structures.
The FARMA method opens indeed a door for the systematic investigation of permeability in dependence on (i) different lipids, (ii) temperature, (iii) phase transitions, and (iv) additives. These studies are under way in our laboratories but we have now emphasized some key findings in regard to the transferability of the method:
- Investigation of additives: We show in the manuscript that different lipid composition are in princi-ple possible by adding cholesterol to the POPC and POPS membrane (Fig S7), causing a noticeable alteration of the permeation kinetics of tryptamine as a model analyte.
- Different lipid compositions: We have added a statement on page 10 (bottom) pointing to the possi-bility of preparing reporter-pair loaded liposomes with different lipid POPC:POPS compositions, ranging from 8:1 to 15:1 (our GUV preparations in the manuscript) to pure POPC (ref. 20 in the main […]

Data set [5] can be described thus: Dye displacement membrane assay (liposome-encapsulated host•dye ensembles). Conditions: dye displacement, CB7•BE-, CB8•MV•5OH-Trp- or CB8•MV•2,6-ANS-loaded liposomes. The source says: Supplementary Figure 13 | Graphical representation of membrane assays using dye displacement for signaling. Diffusion of analytes through a lipid membrane is detected by displacement of the dye from (a) a host•dye or (b) a host•dye•quencher complex, leading to reduction or enhancement in emission intensity.
Supplementary Figure 14 | Membrane permeation monitoring of analytes by dye displacement. (a) Time-resolved changes in fluorescence intensity of CB7•BE-loaded liposomes (λexc = 347 nm, λobs = 500 nm) upon addition of the membrane-permeable analyte tyramine and membrane destabilizing peptide melittin.
(b) Evolution of fluorescence intensity after addition of dimethylbenzylamine (DMBA) to CB7•PAL-loaded liposomes (λexc = 347 nm, λobs = 500 nm). (c) Fluorescence response after addition of the […]
tryptophan to liposomes loaded with CB8•MV•2,6-ANS (λexc = 380 nm, λobs = 463 nm). […]
Combing equations S1 and S2, one arrives at Papp = kp∙(r/3) = kobs/canalyte∙cFAR∙(r/3) (equation 1 in main text)
Dye displacement membrane assay
Dye displacement membrane assays rely on selective encapsulation of reporter pairs inside liposomes and the reversible interaction between the receptor and the translocated analyte. To conduct the assay, liposomes containing the chemosensing ensemble composed of a macrocyclic host and a dye are prepared and purified, such that a subsequently added analyte affects the dye fluorescence only if it can enter the vesicle and displaces the dye from the macrocycle. Until now, only the dye displacement has been used as the signaling mechanism for tandem membrane assays,3, 4 whereby the competitive displacement of the dye from such host•dye complexes upon analyte addition restores the fluorescence features of the dye in solution, Supplementary Figures 13 - 14.
Specifically, this signaling mechanism has been mostly employed with macrocyclic host s with cavity space that is capable o f forming 1:1 complex es, e.g., cucurbit[7]uril (CB7) and the dyes berberine (BER) or palmatine (PAL), see Supplementary Figure 13a, or with p-sulfonato calix[4]arene (CX4) and lucigenin.3,4 Expanding the repertoire of chemosensors for tandem membrane assay s, we exploit herein also the ability of a larger macrocyclic host such as cucurbit[8]uril (CB8) to form 1:1:1 ternary complexes,5-7 and utilize here the quencher methyl viologen (MV) in combination with the fluorescent dyes 5-hydroxy tryptophan (5HO-Trp), 2-anilinonaphthalene -6-sulfonic acid (2,6-ANS) or dapoxyl sulfonic acid, sodium salt (DapoxS), Supplementary Figure 13b. Upon addition of an analyte, the fluorescent dye, the quencher or both the fluorescent dye and quencher are displaced from the CB8 cavity, which in each case is reflected by an increase in the emission intensity of the dye (switch -on displacement assay), Supplementary Figures 14- […]
The dye displacement signal strategy has two important disadvantages compared to the preferred fluorescent artificial receptor (FAR) assays:
(i) The dye displacement strategy is limited to strongly binding analytes, i.e., K(analyte) ≥ K(dye), otherwise a large excess concentration of analyte is needed to generate significant

The conditions of data set [6]: End-point analysis/EPC liposomes; cited from earlier work.
For data set [7] the following is noted: Fluorescence quenching; cited from earlier work.
The conditions of data set [8]: PAMPA; cited from earlier work. For orientation: PAMPA measures passive passage across an artificial lipid membrane.

“Also recorded” adds a separate entry of the source. Where two headings read alike, the source gives them in different places.

In the case of `COc1ccc2cc3[n+](cc2c1OC)CCc1cc2c(cc1-3)OCO2` [BER, berberine], the “dissociation rate from CB7” value in [1] was 0.8 s⁻¹.
Regarding `c1ccc2[nH]ccc2c1` [Indole, indole], the “membrane permeability (in words)” value in [2] was “instantaneous; also recorded: permeating”. For the same molecule, the kobs in [2] (monoexponential fit, analyte 40 µM (bulk), FAR-2 ca. 500 µM in the liposome interior, 20% error) is given as 1.8 s–1; in data set [2] (source data of Fig. 5), 1.8. In addition, the kp in data set [2] (not told, pH 7) is on record as 3200. Further, the “log(kobs)” value in [2] (source data of Fig. 5) was determined as 0.2553. For the same molecule, the “Papp Literature” value in the data set on Caco-2 is on record as 57 10^−6 cm s^−1; in [3], 250 10^−6 cm s^−1.
As to `NCCc1c[nH]c2ccc(O)cc12` [Serotonin, serotonin], the “membrane permeability (in words)” value in [2] is recorded as “pass the membrane within several minutes to hours”. Further, the Papp (usually the rate of passage across a membrane or cell layer, normalised by area and donor concentration) at 16 µM in data set [2] (not told, pH 7) came to 0.004 ×10⁻⁶ cm/s. The Ka with FAR-1 is recorded as 5 10^3 M−1. Further, the “permeation rate, factor lower for DOPC:DOPS compared to POPC:POPS liposomes” value in [4] is reported as 2-4. Further, the “Papp Literature” value in data set [3] is 1.1 10^−6 cm s^−1.
For the molecule `N[C@@H](Cc1c[nH]c2ccccc12)C(=O)O` [Trp, tryptophan], the “membrane permeability (in words)” value was “no permeation” in data set [2], “non-permeating” in [2] (listed as tryptophan) and “impermeable” in data set [5]. Besides, the Ka in the data set on FAR-1 is 150 10^3 M−1. Moreover, the “Papp Literature” value with Caco-2 (no passive permeation but active transport) is 1.0 10^−6 cm s^−1; in [6], 0.00041 ×10⁻⁶ cm/s.
Turning to `NCCc1c[nH]c2ccccc12` [Tryptamine, tryptamine], the “membrane permeability (in words)” value in [2] is “slow permeation; also recorded: pass the membrane within several minutes to hours”; in [5] it was “slowly membrane permeable”. Also, the Ka in the data set with FAR-1 is recorded as 50 10^3 M−1. The “Papp Literature” value is 6.7 10^−6 cm s^−1 in data set [3], 0.33 10^−6 cm s^−1 in [7] and 5.4 10^−6 cm s^−1 in [8].
